The test system of one data set is HeLa cells. In words: Cytotoxicity on HeLa host cells (MTT). It counts as cell-based. Conditions: Homo sapiens, HeLa, median toxicity dose, cytotoxicity against host cells, 24 h. The procedure: (§1) The cytotoxicity of compounds was determined using the previously published thiazolyl blue-based colorimetric method. For this, HeLa cells were used as host cells and their ability to resist invasion by T. gondii RH strain tachyzoites in vitro was checked. The cells were plated in 96-well plates at an appropriate density to ensure exponential growth throughout the experimental period (3 × 10^3 cells per well) and then allowed to adhere for 24 h at 37 °C. The cells were infected with T. gondii (1.5 × 10^4 tachyzoites/well), followed by incubation for 24 h. All compounds were prepared in dimethyl sulfoxide (DMSO) at a stock concentration of 100 mM. Serial dilutions (1–1000 μM) of each compound were tested. Spiramycin was used as a positive control. After 24 h of incubation, 10 μL of MTT solution were added to each well and cells were incubated for a further 2 h. The optical density (OD) was read on a microplate reader at a wavelength of 492 nm. The IC50 in HeLa cells, IC50 in T. gondii and selectivity index were calculated using Microsoft Excel.

In data set [1] the test system is T. gondii RH strain tachyzoites. Kind of data set: In vitro T. gondii growth inhibition in HeLa host cells (MTT). It counts as cell-based, Toxoplasma gondii. Conditions: for SI (selectivity index): IC50 in HeLa cells/IC50 in T. gondii; for IC50: Toxoplasma gondii, median inhibitory concentration, tachyzoite inhibition, HeLa host cells, 24 h. On the procedure: as §1

From paper PMC6407578, “Synthesis and biological evaluation of ursolic acid derivatives bearing triazole moieties as potential anti-Toxoplasma gondii agents” (Journal of Enzyme Inhibition and Medicinal Chemistry, 2019) come the findings set out here.

For `C[C@H]1[C@H](C)CC[C@]2(C(=O)OCCn3cnnc3-c3ccc(F)cc3)CC[C@]3(C)C(=CC[C@@H]4[C@@]5(C)CCC(O)C(C)(C)[C@@H]5CC[C@]43C)[C@H]12` (stereo partly drawn) [3c, 2 –(3-(4-fluorophenyl)-4H-1,2,4-triazol-4-yl)ethyl(1S,2R,4aS,6aS,6bR,8aR,12aR,12bR,14bS)-10-hydroxy-1,2,6a,6b,9,9,12a-heptamethyl-1,3,4,5,6,6a,6b,7,8,8a,9,10,11,12,12a,12b,13,14b-octadecahydropicene-4a(2H)-carboxylate], the IC50 – broadly, the midpoint of a concentration-inhibition curve – in the data set on HeLa cells is 88.2 µM. For the same compound, in data set [1], the “SI (selectivity index)” value was found to be 1.44 and the IC50 turned out to be 61.4 µM.

In the data set with HeLa cells, `C[C@H]1[C@H](C)CC[C@]2(C(=O)O)CC[C@]3(C)C(=CC[C@@H]4[C@@]5(C)C/C(=C\c6cn(-c7ccccc7Br)nn6)C(=O)C(C)(C)[C@@H]5CC[C@]43C)[C@H]12` [1g, (1S,2R,4aS,6aS,6bR,8aR,12aR,12bR,14bS,E)-11-((1–(2-bromophenyl)-1H-1,2,3-triazol-4-yl)methylene)-1,2,6a,6b,9,9,12a-heptamethyl-10-oxo-1,3,4,5,6,6a,6b,7,8,8a,9,10,11,12,12a,12b,13,14b-octadecahydropicene-4a(2H)-carboxylic acid] came in with an IC50 of 240 µM. In data set [1], the “SI (selectivity index)” value was 0.80 and the midpoint of inhibition, the IC50, lay at 302 µM.

With `C[C@H]1[C@H](C)CC[C@]2(C(=O)O)CC[C@]3(C)C(=CC[C@@H]4[C@@]5(C)C/C(=C\c6cn(-c7ccccc7F)nn6)C(=O)C(C)(C)[C@@H]5CC[C@]43C)[C@H]12` [1b, (1S,2R,4aS,6aS,6bR,8aR,12aR,12bR,14bS,E)-11-((1–(2-fluorophenyl)-1H-1,2,3-triazol-4-yl)methylene)-1,2,6a,6b,9,9,12a-heptamethyl-10-oxo-1,3,4,5,6,6a,6b,7,8,8a,9,10,11,12,12a,12b,13,14b-octadecahydropicene-4a(2H)-carboxylic acid], the melting point – broadly, the temperature of the solid-liquid transition – was > 250 °C. In the data set with HeLa cells, this compound gave an IC50 of 420 µM. In data set [1], the “SI (selectivity index)” value is on record as 0.59 and the IC50 amounted to 712 µM.

On to `COc1cc(-n2cc(/C=C3\C[C@]4(C)[C@H]5CC=C6[C@@H]7[C@@H](C)[C@H](C)CC[C@]7(C(=O)O)CC[C@@]6(C)[C@]5(C)CC[C@H]4C(C)(C)C3=O)nn2)cc(OC)c1OC` [1j, (1S,2R,4aS,6aS,6bR,8aR,12aR,12bR,14bS,E)-1,2,6a,6b,9,9,12a-heptamethyl-10-oxo-11-((1–(3,4,5-trimethoxyphenyl)-1H-1,2,3-triazol-4-yl)methylene)-1,3,4,5,6,6a,6b,7,8,8a,9,10,11,12,12a,12b,13,14b-octadecahydropicene-4a(2H)-carboxylic acid], for which the half-maximal inhibitory concentration (IC50) in the data set on HeLa cells was determined as 354 µM. Also, in data set [1], the “SI (selectivity index)” value came out at 1.17 and the IC50 was found to be 301 µM.

`C[C@H]1[C@H](C)CC[C@]2(C(=O)O)CC[C@]3(C)C(=CC[C@@H]4[C@@]5(C)C/C(=C\c6cn(-c7ccccc7I)nn6)C(=O)C(C)(C)[C@@H]5CC[C@]43C)[C@H]12` [1h, (1S,2R,4aS,6aS,6bR,8aR,12aR,12bR,14bS,E)-11-((1–(2-iodophenyl)-1H-1,2,3-triazol-4-yl)methylene)-1,2,6a,6b,9,9,12a-heptamethyl-10-oxo-1,3,4,5,6,6a,6b,7,8,8a,9,10,11,12,12a,12b,13,14b-octadecahydropicene-4a(2H)-carboxylic acid]: the IC50 in the data set with HeLa cells is 230 µM. Besides, in data set [1], the “SI (selectivity index)” value was determined as 0.84 and the IC50 turned out to be 274 µM.

For the compound `C[C@H]1[C@H](C)CC[C@]2(C(=O)OCCn3cnnc3-c3ccccc3)CC[C@]3(C)C(=CC[C@@H]4[C@@]5(C)CCC(O)C(C)(C)[C@@H]5CC[C@]43C)[C@H]12` (stereo partly drawn) [3a, 2 –(3-phenyl-4H-1,2,4-triazol-4-yl)ethyl(1S,2R,4aS,6aS,6bR,8aR,12aR,12bR,14bS)-10-hydroxy-1,2,6a,6b,9,9,12a-heptamethyl-1,3,4,5,6,6a,6b,7,8,8a,9,10,11,12,12a,12b,13,14b-octadecahydropicene-4a(2H)-carboxylate], the half-maximal inhibitory concentration (IC50) with HeLa cells was 102 µM; in data set [1], 88 µM. The “SI (selectivity index)” value in data set [1] stood at 1.15.

For the compound `C[C@H]1[C@H](C)CC[C@]2(C(=O)O)CC[C@]3(C)C(=CC[C@@H]4[C@@]5(C)C/C(=C\c6cn(-c7ccc(Cl)c(Cl)c7)nn6)C(=O)C(C)(C)[C@@H]5CC[C@]43C)[C@H]12` [1f, (1S,2R,4aS,6aS,6bR,8aR,12aR,12bR,14bS,E)-11-((1–(3,4-dichlorophenyl)-1H-1,2,3-triazol-4-yl)methylene)-1,2,6a,6b,9,9,12a-heptamethyl-10-oxo-1,3,4,5,6,6a,6b,7,8,8a,9,10,11,12,12a,12b,13,14b-octadecahydropicene-4a(2H)-carboxylic acid], the melting point is > 250 °C. In the data set on HeLa cells, this compound gave a half-maximal inhibitory concentration (IC50) of 408 µM. In data set [1], the “SI (selectivity index)” value was found to be 0.88 and the IC50 was 462 µM.

For `C[C@H]1[C@H](C)CC[C@]2(C(=O)O)CC[C@]3(C)C(=CC[C@@H]4[C@@]5(C)C/C(=C\c6cn(-c7ccc(F)cc7)nn6)C(=O)C(C)(C)[C@@H]5CC[C@]43C)[C@H]12` [1d, (1S,2R,4aS,6aS,6bR,8aR,12aR,12bR,14bS,E)-11-((1–(4-fluorophenyl)-1H-1,2,3-triazol-4-yl)methylene)-1,2,6a,6b,9,9,12a-heptamethyl-10-oxo-1,3,4,5,6,6a,6b,7,8,8a,9,10,11,12,12a,12b,13,14b-octadecahydropicene-4a(2H)-carboxylic acid], the melting point is > 250 °C. The half-inhibitory concentration (IC50) in the data set with HeLa cells was > 1000 µM. Further, the IC50 in data set [1] is > 1000 µM.

Regarding `C[C@H]1[C@H](C)CC[C@]2(C(=O)OCCn3cnnc3-c3ccc(Cl)cc3)CC[C@]3(C)C(=CC[C@@H]4[C@@]5(C)CCC(O)C(C)(C)[C@@H]5CC[C@]43C)[C@H]12` (stereo partly drawn) [3b, 2 –(3-(4-chlorophenyl)-4H-1,2,4-triazol-4-yl)ethyl(1S,2R,4aS,6aS,6bR,8aR,12aR,12bR,14bS)-10-hydroxy-1,2,6a,6b,9,9,12a-heptamethyl-1,3,4,5,6,6a,6b,7,8,8a,9,10,11,12,12a,12b,13,14b-octadecahydropicene-4a(2H)-carboxylate], the melting point was 245 to 246 °C. The same compound yielded a 50% inhibitory concentration (IC50) with HeLa cells of 2.4 µM. In data set [1], the “SI (selectivity index)” value amounted to 0.36 and the half-inhibitory concentration (IC50) is 6.7 µM.

As for `COc1ccccc1-n1cc(/C=C2\C[C@]3(C)[C@H]4CC=C5[C@@H]6[C@@H](C)[C@H](C)CC[C@]6(C(=O)O)CC[C@@]5(C)[C@]4(C)CC[C@H]3C(C)(C)C2=O)nn1` [1i, (1S,2R,4aS,6aS,6bR,8aR,12aR,12bR,14bS,E)-11-((1–(2-methoxyphenyl)-1H-1,2,3-triazol-4-yl)methylene)-1,2,6a,6b,9,9,12a-heptamethyl-10-oxo-1,3,4,5,6,6a,6b,7,8,8a,9,10,11,12,12a,12b,13,14b-octadecahydropicene-4a(2H)-carboxylic acid], the melting point was > 250 °C. Moreover, in the data set on HeLa cells, the concentration for half-maximal inhibition (IC50) is > 1000 µM. Besides, in data set [1], the IC50 was > 1000 µM.

`Cc1ccc(-n2cc(CNC(=O)COC(=O)[C@]34CC[C@@H](C)[C@H](C)[C@H]3C3=CC[C@@H]5[C@@]6(C)CCC(O)C(C)(C)[C@@H]6CC[C@@]5(C)[C@]3(C)CC4)nn2)cc1` (stereo partly drawn) [2d, (1S,2R,4aS,6aS,6bR,8aR,12aR,12bR,14bS)-2-oxo-2-((1-p-tolyl-1H-1,2,3-triazol-4-yl)methylamino)ethyl-10-hydroxy-1,2,6a,6b,9,9,12a-heptamethyl-1,2,3,4,4a,5,6,6a,6b,7,8,8a,9,10,11,12,12a,12b,13,14b-icosahydropicene-4a-carboxylate] displayed a melting point of 186 to 187 °C. In the data set with HeLa cells, the IC50 was > 1000 µM. The IC50 in data set [1] was > 1000 µM.

In turn, `COc1ccc(-n2cc(CNC(=O)COC(=O)[C@]34CC[C@@H](C)[C@H](C)[C@H]3C3=CC[C@@H]5[C@@]6(C)CCC(O)C(C)(C)[C@@H]6CC[C@@]5(C)[C@]3(C)CC4)nn2)cc1` (stereo partly drawn) [2c, (1S,2R,4aS,6aS,6bR,8aR,12aR,12bR,14bS)-2-((1–(4-methoxyphenyl)-1H-1,2,3-triazol-4-yl)methylamino)-2-oxoethyl-10-hydroxy-1,2,6a,6b,9,9,12a-heptamethyl-1,2,3,4,4a,5,6,6a,6b,7,8,8a,9,10,11,12,12a,12b,13,14b-icosahydropicene-4a-carboxylate] came in with a melting point of 180 to 181 °C. Besides, the half-maximal inhibitory concentration (IC50) with HeLa cells was > 1000 µM. Besides, in data set [1], the concentration for half-maximal inhibition (IC50) is > 1000 µM.

For `C[C@H]1[C@H](C)CC[C@]2(C(=O)O)CC[C@]3(C)C(=CC[C@@H]4[C@@]5(C)C/C(=C\c6cn(-c7cccc(F)c7)nn6)C(=O)C(C)(C)[C@@H]5CC[C@]43C)[C@H]12` [1c, (1S,2R,4aS,6aS,6bR,8aR,12aR,12bR,14bS,E)-11-((1–(3-fluorophenyl)-1H-1,2,3-triazol-4-yl)methylene)-1,2,6a,6b,9,9,12a-heptamethyl-10-oxo-1,3,4,5,6,6a,6b,7,8,8a,9,10,11,12,12a,12b,13,14b-octadecahydropicene-4a(2H)-carboxylic acid], the melting point was > 250 °C. Further, the concentration for half-maximal inhibition (IC50) in the data set with HeLa cells was > 1000 µM. Further, the concentration for half-maximal inhibition (IC50) in data set [1] is > 1000 µM.
